How the values were obtained:
Experiment in all cases: Kinase profiling screen (radioactive filter-binding assay)
Type in all cases: biochemical
p38δ MAPK = molecular target: T1, p38δ MAPK (Homo sapiens, UniProt O15264); conditions: 100 μM compound, 5 μM ATP; read-out: Kinase activity, % of activity in the absence of inhibitor
T1 sequence (O15264 1-365): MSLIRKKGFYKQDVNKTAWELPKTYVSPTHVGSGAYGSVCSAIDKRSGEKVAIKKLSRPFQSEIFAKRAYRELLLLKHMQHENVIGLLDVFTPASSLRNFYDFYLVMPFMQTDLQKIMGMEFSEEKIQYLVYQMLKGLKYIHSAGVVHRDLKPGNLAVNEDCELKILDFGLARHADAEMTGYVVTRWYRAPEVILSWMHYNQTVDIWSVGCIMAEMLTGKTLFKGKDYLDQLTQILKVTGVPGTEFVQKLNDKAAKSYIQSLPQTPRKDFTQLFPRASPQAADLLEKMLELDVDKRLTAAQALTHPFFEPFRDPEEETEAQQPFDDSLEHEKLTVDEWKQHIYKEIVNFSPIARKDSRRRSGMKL
Experimental: (§1) Profiling of 117 protein kinases with CoA, dpCoA and ADP was carried out at the International Centre for Protein Kinase Profiling at the University of Dundee. Each compound was tested in vitro, in duplicate, at 100 μM final concentration using recombinant kinases, model substrates and optimal concentrations of ATP. Bacterially expressed full-length His-Aurora A was used to determine the IC50 value for CoA (in the presence or absence of DTT), dpCoA, ADP and desulfo-CoA. The assay was performed in the presence of 5 μM competing ATP. To examine whether the inhibitory effect of CoA on Aurora A is modulated by TPX2, IC50 values for CoA were also generated in the presence and absence of 1 μg TPX2 (residues 1–43) fragment.

TTK = molecular target: T2, TTK (Homo sapiens, UniProt P33981); conditions: 100 μM compound, 20 μM ATP; read-out: Kinase activity, % of activity in the absence of inhibitor
T2 sequence (P33981 1-857): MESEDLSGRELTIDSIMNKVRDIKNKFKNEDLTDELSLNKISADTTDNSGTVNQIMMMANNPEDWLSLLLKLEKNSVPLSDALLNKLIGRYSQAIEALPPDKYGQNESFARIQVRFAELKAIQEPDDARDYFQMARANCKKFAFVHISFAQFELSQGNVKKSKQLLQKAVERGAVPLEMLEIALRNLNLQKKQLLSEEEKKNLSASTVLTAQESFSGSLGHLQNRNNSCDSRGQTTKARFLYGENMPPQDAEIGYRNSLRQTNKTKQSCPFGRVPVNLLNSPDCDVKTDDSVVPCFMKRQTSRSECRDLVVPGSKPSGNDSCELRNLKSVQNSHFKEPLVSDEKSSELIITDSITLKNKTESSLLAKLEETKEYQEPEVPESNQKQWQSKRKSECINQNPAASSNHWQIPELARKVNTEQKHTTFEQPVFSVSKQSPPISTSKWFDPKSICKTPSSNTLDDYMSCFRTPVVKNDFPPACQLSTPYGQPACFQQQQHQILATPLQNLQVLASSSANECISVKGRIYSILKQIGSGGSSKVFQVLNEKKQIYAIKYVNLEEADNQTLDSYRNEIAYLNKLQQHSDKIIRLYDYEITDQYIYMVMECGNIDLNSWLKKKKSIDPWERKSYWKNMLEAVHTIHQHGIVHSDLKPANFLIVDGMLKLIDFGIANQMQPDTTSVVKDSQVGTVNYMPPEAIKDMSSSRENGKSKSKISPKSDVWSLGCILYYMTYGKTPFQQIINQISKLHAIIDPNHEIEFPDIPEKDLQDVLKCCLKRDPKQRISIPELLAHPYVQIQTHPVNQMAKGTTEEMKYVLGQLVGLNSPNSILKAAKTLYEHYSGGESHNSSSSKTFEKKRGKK
Experimental: as §1

ASK1 = molecular target: T3, ASK1 (Homo sapiens, UniProt Q99683); conditions: 100 μM compound, 50 μM ATP; read-out: Kinase activity, % of activity in the absence of inhibitor
T3 sequence (Q99683 1-1374): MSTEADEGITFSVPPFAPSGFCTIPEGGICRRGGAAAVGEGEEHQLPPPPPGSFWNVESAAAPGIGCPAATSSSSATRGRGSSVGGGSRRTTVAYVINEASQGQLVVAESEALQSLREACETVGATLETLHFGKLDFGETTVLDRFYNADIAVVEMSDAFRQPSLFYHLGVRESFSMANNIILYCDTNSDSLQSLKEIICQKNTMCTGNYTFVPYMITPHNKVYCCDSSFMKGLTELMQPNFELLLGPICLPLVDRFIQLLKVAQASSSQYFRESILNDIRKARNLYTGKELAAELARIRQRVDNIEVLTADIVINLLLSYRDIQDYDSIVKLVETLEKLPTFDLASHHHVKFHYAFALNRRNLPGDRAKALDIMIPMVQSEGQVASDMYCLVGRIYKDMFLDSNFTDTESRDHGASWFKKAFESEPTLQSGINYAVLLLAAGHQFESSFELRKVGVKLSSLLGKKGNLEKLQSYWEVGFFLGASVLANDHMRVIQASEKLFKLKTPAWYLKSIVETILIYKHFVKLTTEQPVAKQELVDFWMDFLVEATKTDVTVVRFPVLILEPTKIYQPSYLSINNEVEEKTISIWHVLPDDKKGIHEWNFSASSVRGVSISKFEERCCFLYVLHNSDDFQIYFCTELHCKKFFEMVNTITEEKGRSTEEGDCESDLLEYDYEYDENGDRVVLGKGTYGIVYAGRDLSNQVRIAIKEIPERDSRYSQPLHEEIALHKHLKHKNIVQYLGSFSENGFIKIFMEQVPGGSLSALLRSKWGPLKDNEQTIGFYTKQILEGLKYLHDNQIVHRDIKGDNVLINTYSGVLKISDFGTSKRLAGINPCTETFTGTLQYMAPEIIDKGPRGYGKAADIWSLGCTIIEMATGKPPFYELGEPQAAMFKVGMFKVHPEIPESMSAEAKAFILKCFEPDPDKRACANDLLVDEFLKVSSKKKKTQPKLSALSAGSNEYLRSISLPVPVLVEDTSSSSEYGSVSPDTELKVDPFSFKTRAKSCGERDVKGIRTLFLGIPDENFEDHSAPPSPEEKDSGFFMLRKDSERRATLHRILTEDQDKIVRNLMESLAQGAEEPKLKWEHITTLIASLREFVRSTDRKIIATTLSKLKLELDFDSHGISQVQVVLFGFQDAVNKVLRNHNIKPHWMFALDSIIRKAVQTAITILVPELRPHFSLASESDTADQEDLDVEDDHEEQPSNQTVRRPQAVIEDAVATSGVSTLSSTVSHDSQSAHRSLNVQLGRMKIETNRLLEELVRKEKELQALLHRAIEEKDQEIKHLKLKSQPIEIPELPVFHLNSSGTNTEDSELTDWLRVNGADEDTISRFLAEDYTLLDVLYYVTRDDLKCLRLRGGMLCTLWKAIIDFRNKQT
Experimental: as §1

MNK1 = MNK1 (Homo sapiens, UniProt Q9BUB5); conditions: 100 μM compound, 50 μM ATP; read-out: Kinase activity, % of activity in the absence of inhibitor
Experimental: as §1

MNK1, sequence (Q9BUB5 whole entry): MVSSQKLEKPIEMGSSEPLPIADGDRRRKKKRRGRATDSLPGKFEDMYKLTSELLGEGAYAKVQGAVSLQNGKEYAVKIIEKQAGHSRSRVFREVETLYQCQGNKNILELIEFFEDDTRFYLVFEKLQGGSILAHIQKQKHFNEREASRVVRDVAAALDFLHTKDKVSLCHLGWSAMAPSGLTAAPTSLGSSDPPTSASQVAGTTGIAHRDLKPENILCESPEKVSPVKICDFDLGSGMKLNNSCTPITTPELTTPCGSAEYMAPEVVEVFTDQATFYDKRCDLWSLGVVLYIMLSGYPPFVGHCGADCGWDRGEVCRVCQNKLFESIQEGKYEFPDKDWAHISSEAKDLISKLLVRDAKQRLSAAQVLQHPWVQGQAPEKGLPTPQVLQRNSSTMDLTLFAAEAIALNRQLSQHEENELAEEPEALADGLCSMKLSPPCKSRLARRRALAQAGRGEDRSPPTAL

Structure (SMILES)	activity at 100 µM (p38δ MAPK) [%]	activity at 100 µM (TTK) [%]	activity at 100 µM (ASK1) [%]	activity at 100 µM (MNK1) [%]
Nc1ncnc2c1ncn2C1OC(COP(=O)(O)OP(=O)(O)O)C(O)C1O (stereo not drawn) [ADP]	37.3	54.7	70.2	60.7
CC(C)(COP(=O)(O)OP(=O)(O)OC[C@H]1O[C@@H](n2cnc3c(N)ncnc32)[C@H](O)[C@@H]1OP(=O)(O)O)[C@@H](O)C(=O)NCCC(=O)NCCS [CoA, Coenzyme A]	128	101	129	150
CC(C)(COP(=O)(O)OP(=O)(O)OCC1OC(n2cnc3c(N)ncnc32)C(O)C1O)C(O)C(=O)NCCC(=O)NCCS (stereo not drawn) [dpCoA, dephospho-CoA]	71.3	75.8	88.6	84.2
